The NIST ThermoML archive (doi:10.1021/je100577v)

Legend:
[1] = Liquid; for mass density: Vibrating tube method; for vapor or sublimation pressure: Ebulliometric method (Recirculating still)
[2] = xn = mol fraction of the nth substance listed; details: Liquid, Vibrating tube method, x2 = 0

CCCO [propan-1-ol]
mass density [kg/m3], [1]
Details | 20000 kPa | 25000 kPa | 30000 kPa | 35000 kPa | 40000 kPa
283.15 K | 825.1 | 828.4 | 831.5 | 834.5 | 837.4
298.15 K | 814.2 | 817.6 | 820.9 | 824 | 827.1
313.15 K | 803.1 | 806.9 | 810.4 | 813.7 | 817
328.15 K | 792 | 795.8 | 799.6 | 803.1 | 806.6

[1]
Details | vapor or sublimation pressure [kPa]
319.65 K | 10
327.25 K | 15
332.95 K | 20
337.45 K | 25
341.25 K | 30
343.55 K | 33.33
344.65 K | 35
347.65 K | 40
350.35 K | 45
352.75 K | 50
355.05 K | 55
357.05 K | 60
359.05 K | 65
359.65 K | 66.66
360.85 K | 70
362.55 K | 75
364.15 K | 80
365.65 K | 85
367.15 K | 90
370.05 K | 101.33

CCCO [propan-1-ol] + CC12CCC(CC1)C(C)(C)O2
mass density [kg/m3], [2]
Details | 20000 kPa | 25000 kPa | 30000 kPa | 35000 kPa | 40000 kPa
283.15 K | 825.1 | 828.4 | 831.5 | 834.5 | 837.4
298.15 K | 814.2 | 817.6 | 820.9 | 824 | 827.1
313.15 K | 803.1 | 806.9 | 810.4 | 813.7 | 817
328.15 K | 792 | 795.8 | 799.6 | 803.1 | 806.6

CC12CCC(CC1)C(C)(C)O2 [1,3,3-trimethyl-2-oxabicyclo[2.2.2]octane]
mass density [kg/m3], [1]
Details | 20000 kPa | 25000 kPa | 30000 kPa | 35000 kPa | 40000 kPa
283.15 K | 945.9 | 949.1 | 952 | 954.9 | 957.6
298.15 K | 934.1 | 937.4 | 940.5 | 943.4 | 946.4
313.15 K | 922.3 | 925.8 | 929.1 | 932.4 | 935.5
328.15 K | 910.6 | 914.3 | 917.9 | 921.3 | 924.7

[1]
Details | vapor or sublimation pressure [kPa]
326.65 K | 1.33
341.55 K | 2.67
357.25 K | 5.33
363.45 K | 6.67
381.45 K | 13.33
392.75 K | 20
401.75 K | 26.66
408.65 K | 33.33
414.65 K | 40
419.95 K | 46.66
424.65 K | 53.33
428.85 K | 60
432.75 K | 66.66
436.35 K | 73.33
439.75 K | 79.99
442.85 K | 86.66
445.85 K | 93.33
448.65 K | 99.61
449.15 K | 101.33
